Measurements published in ChEMBL document CHEMBL3044919 (Med Chem Res, 2005).

Tests used:
[1] = biological target: Sigma non-opioid intracellular receptor 1 (Cavia porcellus, UniProt Q60492); assay: Displacement of [3H](+)pentazocine from sigma-1 receptor in Cavia porcellus (guinea pig) brain membranes; design: species or system Membrane
[2] = Displacement of [3H]DTG from sigma-1 receptor in Cavia porcellus (guinea pig) brain membranes; design: species or system Membrane
Cavia porcellus = species on record: Cavia porcellus; assay: Selectivity ratio of Ki for sigma-2 receptor in Cavia porcellus (guinea pig) brain membranes to Ki for sigma-1 receptor in Cavia porcellus (guinea pig) brain membranes
[3] = biological target: Kappa-type opioid receptor (Homo sapiens, UniProt P41145); assay: Binding affinity to Kappa opioid receptor (unknown origin)
[4] = biological target: T1, Adrenergic receptor alpha-2 (Homo sapiens, UniProt P08913+P18825+P18089); assay: Binding affinity to alpha2 receptor (unknown origin)
T1 sequence (P08913 whole entry): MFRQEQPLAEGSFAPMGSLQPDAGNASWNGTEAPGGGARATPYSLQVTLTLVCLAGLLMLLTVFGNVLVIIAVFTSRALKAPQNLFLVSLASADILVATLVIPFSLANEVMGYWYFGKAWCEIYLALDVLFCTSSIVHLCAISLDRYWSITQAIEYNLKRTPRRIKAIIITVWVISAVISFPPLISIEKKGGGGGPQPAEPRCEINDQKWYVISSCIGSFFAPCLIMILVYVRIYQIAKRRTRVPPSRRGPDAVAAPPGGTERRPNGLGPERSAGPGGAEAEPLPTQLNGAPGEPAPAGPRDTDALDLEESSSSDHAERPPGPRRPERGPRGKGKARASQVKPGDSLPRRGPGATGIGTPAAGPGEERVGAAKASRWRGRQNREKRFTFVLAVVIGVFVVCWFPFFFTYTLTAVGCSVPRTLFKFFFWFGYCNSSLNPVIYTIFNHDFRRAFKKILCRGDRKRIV
T1 sequence (P18825 whole entry): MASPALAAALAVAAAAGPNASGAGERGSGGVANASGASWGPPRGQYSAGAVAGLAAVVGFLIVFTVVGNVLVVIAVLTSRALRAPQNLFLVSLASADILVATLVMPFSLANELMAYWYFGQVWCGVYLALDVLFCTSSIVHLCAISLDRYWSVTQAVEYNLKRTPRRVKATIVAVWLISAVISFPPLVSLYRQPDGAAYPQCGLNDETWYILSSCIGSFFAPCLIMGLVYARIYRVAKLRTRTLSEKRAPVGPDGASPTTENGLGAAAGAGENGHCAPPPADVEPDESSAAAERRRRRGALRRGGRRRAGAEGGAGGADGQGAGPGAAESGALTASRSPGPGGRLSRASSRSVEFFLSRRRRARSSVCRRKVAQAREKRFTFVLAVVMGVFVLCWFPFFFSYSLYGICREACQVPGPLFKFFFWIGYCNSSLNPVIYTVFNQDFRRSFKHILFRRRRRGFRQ
T1 sequence (P18089 whole entry): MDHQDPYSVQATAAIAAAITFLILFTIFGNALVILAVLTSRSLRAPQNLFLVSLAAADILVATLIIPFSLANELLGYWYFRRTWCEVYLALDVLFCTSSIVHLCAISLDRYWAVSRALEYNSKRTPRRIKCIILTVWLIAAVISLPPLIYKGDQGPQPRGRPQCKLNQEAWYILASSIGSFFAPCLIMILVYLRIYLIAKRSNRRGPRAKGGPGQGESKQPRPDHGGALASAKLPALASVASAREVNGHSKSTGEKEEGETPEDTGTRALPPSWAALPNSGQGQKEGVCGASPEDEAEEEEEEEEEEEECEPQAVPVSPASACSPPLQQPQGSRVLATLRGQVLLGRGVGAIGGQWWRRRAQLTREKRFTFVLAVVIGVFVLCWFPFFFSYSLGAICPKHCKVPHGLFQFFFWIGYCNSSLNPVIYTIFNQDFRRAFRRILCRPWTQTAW

Histamine H1 receptor = Histamine H1 receptor (Homo sapiens, UniProt P35367); assay: Binding affinity to histamine H1 (unknown origin)
Sequence of Histamine H1 receptor (P35367 whole entry): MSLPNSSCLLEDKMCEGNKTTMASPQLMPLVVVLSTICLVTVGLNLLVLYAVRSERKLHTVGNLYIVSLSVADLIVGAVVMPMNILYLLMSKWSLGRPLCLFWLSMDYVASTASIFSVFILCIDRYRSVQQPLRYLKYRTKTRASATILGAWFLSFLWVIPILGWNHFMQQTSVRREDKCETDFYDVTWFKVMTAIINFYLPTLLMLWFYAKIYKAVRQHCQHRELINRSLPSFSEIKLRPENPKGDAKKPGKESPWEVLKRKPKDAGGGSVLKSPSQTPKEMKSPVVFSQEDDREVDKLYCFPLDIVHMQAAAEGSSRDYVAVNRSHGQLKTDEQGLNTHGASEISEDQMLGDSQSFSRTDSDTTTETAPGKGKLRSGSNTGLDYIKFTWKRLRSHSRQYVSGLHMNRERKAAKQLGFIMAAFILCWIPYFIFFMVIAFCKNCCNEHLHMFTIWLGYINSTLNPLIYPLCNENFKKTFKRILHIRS

Sequence of Sigma non-opioid intracellular receptor 1 (Q60492 whole entry): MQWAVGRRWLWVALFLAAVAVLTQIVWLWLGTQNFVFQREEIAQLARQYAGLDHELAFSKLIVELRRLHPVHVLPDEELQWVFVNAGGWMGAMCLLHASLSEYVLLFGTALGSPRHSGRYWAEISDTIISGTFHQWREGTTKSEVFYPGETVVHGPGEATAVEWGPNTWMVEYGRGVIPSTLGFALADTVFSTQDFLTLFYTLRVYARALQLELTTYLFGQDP
Sequence of Kappa-type opioid receptor (P41145 whole entry): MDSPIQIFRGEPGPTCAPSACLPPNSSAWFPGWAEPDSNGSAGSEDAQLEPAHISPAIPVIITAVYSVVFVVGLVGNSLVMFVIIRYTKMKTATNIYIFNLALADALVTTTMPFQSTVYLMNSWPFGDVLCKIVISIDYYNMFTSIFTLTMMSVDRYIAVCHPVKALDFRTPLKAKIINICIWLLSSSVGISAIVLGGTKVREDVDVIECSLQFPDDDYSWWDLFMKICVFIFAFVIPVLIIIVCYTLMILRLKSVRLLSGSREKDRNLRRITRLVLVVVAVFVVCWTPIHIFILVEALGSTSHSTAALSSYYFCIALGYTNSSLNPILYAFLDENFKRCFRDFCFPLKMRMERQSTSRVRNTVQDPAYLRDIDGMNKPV

SMILES | Ki [1] [nM] | Ki [2] [nM] | Ratio Ki (Cavia porcellus) | Ki [3] [nM] | Ki [4] [nM] | Ki (Histamine H1 receptor) [nM]
CCCCc1ccc2c(c1)sc(=O)n2CCN1CCCCC1 | 3.7 | > 1000 |  |  |  | 
CCC(=O)c1ccc2c(c1)oc(=O)n2CCCN1CCCCC1 | 8.5 | 496 | 58 |  |  | 
CCCc1ccc2c(c1)sc(=O)n2CCCN1CCCCC1 | 1.2 | > 1000 | > 1000 |  |  | 
O=C(c1ccc2c(c1)sc(=O)n2CCN1CCCCC1)C1CC1 | > 1000 | > 1000 |  |  |  | 
CN(C[C@@H]1C[C@@]1(CO)c1ccccc1)C12CC3CC(CC(C3)C1)C2 (relative stereo) | 1.26 |  | 2 | 418 |  | 
CCCc1ccc2c(c1)sc(=O)n2CCCCN1CCCCC1 | 2.9 | 13 | 4.5 |  |  | 
CCC(=O)c1ccc2c(c1)sc(=O)n2CCCN1CCCCC1 | 2.3 | 202 | 87 |  |  | 
CCCc1ccc2c(c1)sc(=O)n2CCN1CCCCCC1 | 0.56 | > 1000 | > 1000 |  | 205 | 311
CCCc1ccc2c(c1)sc(=O)n2CCN1CCCCC1 | 0.6 | 18 | 30 |  |  | 
CCCc1ccc2c(c1)OCC(=O)N2CCN1CCCCC1 | 28 | > 1000 |  |  |  | 
CCCc1ccc2c(c1)sc(=O)n2CCN1C[C@]2(C)CCC[C@]2(C)C1 | 1.4 | > 1000 |  |  |  | 
